Assay [1] relates to CatG4 (DNA, G4) TGGGTAGGGCGGGTTGGGAAA
Briefly: hemin-dependent self-biotinylation, StAv gel shift (indirect). The conditions noted are these: 20 mM KCl; 40 mM HEPES pH 8.0, 22°C; 5 uM hemin. (Mobility shift assays separate free from complexed probe on a gel.)

In assay [2] the test system is CatG4-ext (DNA, G4) ACATAGCTGACTGGCTTGATTTTGGGTAGGGCGGGTTGGGAAATATCGAATTCTCAGCCTACACTGCAGTACTAGTACATATCA
The assay is described as above. Conditions: 20 mM KCl, 26 mM MgCl2, 2.5 mM spermidine; QD buffer pH 8.0, 22°C; 10 nM DNA, 5 uM hemin, 100 uM ssDNA or dsDNA competitor.

Assay [3] relates to MYC (DNA, G4) TGAGGGTGGGTAGGGTGGGTAA
The assay is described as above. Conditions: 20 mM KCl; 40 mM HEPES pH 8.0, 22°C; 5 uM hemin.

The subject of assay [4] is KIT1 (DNA, G4) AGGGAGGGCGCTGGGAGGAGGG
The description is as above. Conditions: 20 mM KCl; 40 mM HEPES pH 8.0, 22°C; 5 uM hemin.

Assay [5] concerns KIT2 (DNA, G4) CGGGCGGGCGCGAGGGAGGGG
Described as above. The conditions noted are these: 20 mM KCl; 40 mM HEPES pH 8.0, 22°C; 5 uM hemin.

The subject of assay [6] is SPB1 (DNA, G4) GGCGAGGAGGGGCGTGGCCGGC
Described as above. Conditions: 20 mM KCl; 40 mM HEPES pH 8.0, 22°C; 5 uM hemin.

The test system of assay [7] is TBA (DNA, G4) GGTTGGTGTGGTTGG
The description is as above. Conditions: 20 mM KCl; 40 mM HEPES pH 8.0, 22°C; 5 uM hemin.

Assay [8] relates to hTELO (DNA, G4) GGTTAGGGTTAGGGTTAGGGTTAGGGTTAG
Described as above. The conditions noted are these: 20 mM KCl; 40 mM HEPES pH 8.0, 22°C; 5 uM hemin.

For assay [9], the system named is rBCL2 (RNA, G4) AGGGGGCCGUGGGGUGGGAGCUGGGG
Described as above. The conditions noted are these: 20 mM KCl; 40 mM HEPES pH 8.0, 22°C; 5 uM hemin.

Assay [10] has as its system rNRAS (RNA, G4) AGGGAGGGGCGGGUCUGGG
Described as above. Conditions: 20 mM KCl; 40 mM HEPES pH 8.0, 22°C; 5 uM hemin.

Assay [11] concerns CatG4-T7 / ssDNA duplex-GQ chimera (DNA, G4) TGGGTAGGGCGGGTTGGGAAATATCCTATAGTGAGTCGTATTAAAG/CTTTAATACGACTCACTATAGG
The assay is described as above. The conditions noted are these: 20 mM KCl, 26 mM MgCl2, 2.5 mM spermidine; QD buffer pH 8.0; 1 uM DNA, 5 uM hemin; CatG4-T7 strand 52%, ssDNA strand 3% biotinylated.

The subject of assay [12] is CatG4-ext2 / Comp-1 / ssDNA / Comp-3 GQ-duplex chimera (DNA, G4) TGGGTAGGGCGGGTTGGGAAATATTTTAGCTCACGAGACGCTCCCATAGTGACCTATAGTGAGTCGTATTAAAGTCCGGAGGACTGTCCTCCGGC/TCACTATGGGAGCGTCTCGTGAGCTAAA/CTTTAATACGACTCACTATAGG/GCCGGAGGACAGTCCTCCGGA
The assay is described as above. Conditions: 20 mM KCl, 26 mM MgCl2, 2.5 mM spermidine; QD buffer pH 8.0; 1 uM DNA, 5 uM hemin; ssDNA strand not biotinylated.

Assay [13] deals with CatG4-ext (DNA, G4) ACATAGCTGACTGGCTTGATTTTGGGTAGGGCGGGTTGGGAAATATCGAATTCTCAGCCTACACTGCAGTACTAGTACATATCA
Briefly: competition with hemin: StAv gel shift of self-biotinylation. Conditions: 20 mM KCl, 40 mM HEPES pH 8.0, 22°C, 5 uM hemin.

[14] abbreviates: 20 uM ligand lowers biotinylation 67% to 22-23%.

On to `C=CC1=C(C)C2=Cc3c(C=C)c(C)c4[n]3[Fe]([Cl])[n]3c(c(C)c(CCC(=O)O)c3=CC3=NC(=C4)C(C)=C3CCC(=O)O)=CC1=N2`, for which the binding entry in [1] is on record as “yes”; in [2], “yes”; in assay [3], “yes”; in [4], “yes”; in assay [5] it was “yes”; in [6] it was “weak”. Also, the binding entry is “weak” in [7]; “yes” in [8]; “yes” in assay [9]; “yes” in [10]; “yes” in assay [11]; “yes” in assay [12].
For the compound `CCc1c(C)c2cc3nc(cc4nc(cc5c(CC)c(C)c(cc1[nH]2)n5C)C(C)=C4CCC(=O)O)C(CCC(=O)O)=C3C`, the binding entry in [13] (setting [14]) is “yes”.
The same measure, in the same setting: then `CN(C)c1ccc(Nc2c3ccc(NC(=O)CCN4CCCC4)cc3nc3cc(NC(=O)CCN4CCCC4)ccc23)cc1`, with “yes”.
For the compound `NCCOc1cc(C(=O)Nc2cc(OCCN)c3ccccc3n2)nc(C(=O)Nc2cc(OCCN)c3ccccc3n2)c1`, the binding entry in assay [13] (20 uM ligand lowers biotinylation 67% to 1%) is recorded as “yes”.

For the origin of these results see publication PMC7261162 (2020).
